Test results: PubChem BioAssay (NCI)
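Test compounds were applied to cells in 96-well plates for 48 hours at 5 doses. Abbreviation: GI50, concentration required for 50% inhibition of growth. TGI marks complete inhibition of growth.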

How the values were obtained:
Assay in all cases: DTP human tumour cell line panel, 48 h
A549 NSCLC = tested on: A549 NSCLC
HCC-2998 colon = tested on: HCC-2998 colon
HT29 colon = tested on: HT29 colon
MALME-3M melanoma = tested on: MALME-3M melanoma
NCI-H226 lung = tested on: NCI-H226 lung
RPMI-8226 leukemia = tested on: RPMI-8226 leukemia
SN12C renal = tested on: SN12C renal
DU-145 prostate = tested on: DU-145 prostate
NCI/ADR-RES ovarian = tested on: NCI/ADR-RES ovarian
MDA-MB-435 = tested on: MDA-MB-435

Row | SMILES | TGI (A549 NSCLC) [µM] | TGI (HCC-2998 colon) [µM] | TGI (HT29 colon) [µM] | TGI (MALME-3M melanoma) [µM] | TGI (NCI-H226 lung) [µM] | TGI (RPMI-8226 leukemia) [µM] | TGI (SN12C renal) [µM] | GI50 (A549 NSCLC) [µM] | GI50 (DU-145 prostate) [µM] | TGI (DU-145 prostate) [µM] | GI50 (HCC-2998 colon) [µM] | GI50 (HT29 colon) [µM] | GI50 (MALME-3M melanoma) [µM] | GI50 (NCI-H226 lung) [µM] | GI50 (NCI/ADR-RES ovarian) [µM] | TGI (NCI/ADR-RES ovarian) [µM] | GI50 (SN12C renal) [µM] | GI50 (MDA-MB-435) [µM] | TGI (MDA-MB-435) [µM] | GI50 (RPMI-8226 leukemia) [µM]
1 | N#C/C(=C\c1c(O)cc(O)cc1O)C(N)=O | > 100 | > 100 | > 100 | > 100 | > 100 | > 100 | > 100 | – | – | – | – | – | – | – | – | – | – | – | – | –
2 | COC(=O)c1c(O)ccc(O)c1C(C(C)=O)C(C)=O | > 100 | > 100 | > 100 | > 100 | – | > 100 | > 100 | – | – | – | – | – | – | – | – | – | – | – | – | –
3 | CC1OC(n2cc(C(F)(F)F)c(=O)[nH]c2=O)C=CC1=O (stereo unspecified) | > 100 | 32.3 | 54.6 | 34.2 | 66.1 | 37.4 | 57.8 | – | – | – | – | – | – | – | – | – | – | – | – | –
4 | COc1ccc(CN2C(=O)[C@@H]3Cc4c(OC)c(C)c(OC)c(OC)c4[C@H](/C2=C\c2cc(OC)c(OC)c(C)c2OC)N3C(=O)OC(C)C)cc1 | > 100 | > 100 | > 100 | > 100 | 34.1 | > 100 | > 100 | – | – | – | – | – | – | – | – | – | – | – | – | –
5 | Cc1ccc2c(c1)-c1c3c(nn1C)-c1ccccc1SC3O2 (stereo unspecified) | > 100 | > 100 | > 100 | > 100 | – | > 100 | – | – | – | – | – | – | – | – | – | – | – | – | – | –
6 | CC(=O)OCC1OC(n2cccnc2=O)C(OC(C)=O)C1OC(C)=O (stereo unspecified) | > 100 | – | > 100 | > 100 | > 100 | > 100 | > 100 | – | – | – | – | – | – | – | – | – | – | – | – | –
7 | O=C(Nc1ccncc1)C(=O)c1cn(S(=O)(=O)c2cccc(Cl)c2)c2ccccc12 | > 100 | > 100 | > 100 | > 100 | > 100 | – | > 100 | 22.4 | 10.9 | > 100 | 13.9 | 3.62 | 18.7 | 13.6 | 2.86 | > 100 | 13 | – | – | –
8 | O=C1C=C(NCCO)c2nccc3c2c1nc1ccccc13 | > 100 | – | > 100 | 49 | 59.5 | > 100 | > 100 | 16.4 | 24.8 | > 100 | – | 26.9 | 17.4 | 14.8 | 32 | > 100 | 18.2 | 29.3 | > 100 | 24.7
9 | COc1ccc(Oc2nc3cc(N)cc(N)c3nc2-c2ccccc2)cc1 | > 100 | – | > 100 | > 100 | – | 71.4 | > 100 | 37.4 | 69.4 | > 100 | – | 39.9 | – | – | 59.9 | > 100 | 50.1 | 40.6 | > 100 | –
10 | COc1cc(-c2nn(-c3ccc(NC(=O)Nc4cc(C(F)(F)F)cc(C(F)(F)F)c4)cc3)cc2-c2ccncc2)ccc1Cl | 13 | 5.38 | 12.3 | – | 4.84 | – | 4.21 | 2.47 | 3.39 | 11.2 | 2.21 | 3.31 | – | 1.92 | 2 | 7.38 | 1.71 | 1.88 | 3.99 | –
11 | O=C1c2ccccc2C(=O)N1CCCOCc1c[nH]c(=O)[nH]c1=O | > 100 | – | > 100 | > 100 | > 100 | > 100 | > 100 | – | – | – | – | – | – | – | – | – | – | – | – | –
12 | O=S1(=O)c2ccccc2N(c2ccccc2)c2nnnn21 | > 100 | 36.4 | 67.8 | – | > 100 | – | 39.1 | – | – | > 100 | – | – | – | – | – | > 100 | – | – | > 100 | –
13 | C=C1C(=O)O[C@H](c2ccoc2)C[C@@H]1[C@@]1(C)CCCC2(C)C(=O)OCC21 (stereo partly specified) | > 100 | > 100 | > 100 | > 100 | > 100 | > 100 | > 100 | – | – | – | – | – | – | – | – | – | – | – | – | –
14 | CCOC(=O)C1=C(OC(OCC)C([Se]c2ccccc2)C(C)C)CCC1 (stereo unspecified) | > 100 | > 100 | 41.7 | 81.9 | 37.4 | 38.5 | 25.1 | – | – | – | – | – | – | – | – | – | – | – | – | –
15 | CCOC(=O)C1=C(C)NC(=O)NC1c1ccc(OC)cc1OC (stereo unspecified) | > 100 | > 100 | > 100 | > 100 | > 100 | > 100 | > 100 | – | – | – | – | – | – | – | – | – | – | – | – | –
16 | Cc1cccc(C)c1NC(=O)CCC(=O)NC(N)=NC#N | > 100 | > 100 | > 100 | > 100 | > 100 | > 100 | > 100 | – | – | – | – | – | – | – | – | – | – | – | – | –
17 | N#Cc1c2ccccc2c(Cc2ccc3c(c2)OCCOCCOCCOCCOCCO3)c2ccccc12 | 16.7 | 24.7 | – | 20.3 | 24.3 | > 100 | 22.8 | – | – | – | – | – | – | – | – | – | – | – | – | –
18 | CN(C)c1ccc(/C=C(\C#N)c2cc3ccccc3[nH]2)cc1 | > 100 | > 100 | 15.9 | > 100 | – | 4.91 | > 100 | 1.55 | 3.41 | 35.4 | 6.59 | 0.375 | 2.32 | – | 0.49 | > 100 | 2.37 | 0.228 | 0.641 | 0.63
19 | COC(=O)C1C(C(=O)O)C2(c3ccccc3)C(=O)C1(c1ccccc1)C(c1ccccc1)=C2c1ccccc1 (stereo unspecified) | 39.1 | 29.6 | – | 59.3 | 66 | 45.7 | 38.9 | 19.8 | 16.9 | 34 | 15.7 | – | 26.8 | 24.8 | 18.4 | 34 | 18 | 24.4 | 58.9 | 15.7
20 | Cc1ccc(N)cc1[As]=[As]c1cc(N)ccc1C (stereo unspecified) | 20 | 3.58 | – | 2.03 | 3.07 | 4.45 | 2.88 | 4.36 | 1.81 | 3.23 | 1.93 | – | 0.679 | 1.57 | 3.19 | > 100 | 1.4 | 1.62 | 3.25 | 1.07
21 | CC1(C)c2ccccc2N2C(c3ccccc3)=NOC21C (stereo unspecified) | > 100 | – | > 100 | > 100 | > 100 | > 100 | > 100 | – | – | – | – | – | – | – | – | – | – | – | – | –
22 | O=C(NC1CC1)c1c(O)[nH]c(=S)[nH]c1=O | > 100 | – | > 100 | > 100 | > 100 | > 100 | > 100 | – | – | – | – | – | – | – | – | – | – | – | – | –
